Results from PMC11046306, “METTL17 is an Fe-S cluster checkpoint for mitochondrial translation” (Molecular cell, 2024).

Molecular target: T1, mS29 (Saccharomyces cerevisiae, UniProt Q01163)
T1 construct: gene RSM23; native subunit within the mitoribosomal small subunit purified from yeast mitochondria
Experiment: cryo-EM structure of the SSU […] Å
Assay type: binding
Conditions: within the mitoribosomal SSU; nucleotide pocket; reassigned from GDP

SMILES: Nc1ncnc2c1ncn2[C@@H]1O[C@H](COP(=O)(O)OP(=O)(O)OP(=O)(O)O)[C@@H](O)[C@H]1O [adenosine triphosphate]
- cryo-EM structure of the SSU 2.3 Å: guanosine diphosphate (GDP) to adenosine triphosphate (ATP) in the nucleotide pocket of the protein mS29
